Results published in patent US20180045744A1, “N[…] DRUG CONCENTRATIONS IN ORAL FLUIDS AND TESTING FOR POTENTIAL NON-[…] DRUG TREATMENT REGIMEN” (Ameritox, LLC, priority 2015, published 2018).

Assay: Oral fluid testing: concentration of the primary metabolite (parent drug) in oral fluid of patients
Type: in vivo, human
Description: In some embodiments, the amount of a drug in a subject is determined by analyzing a fluid of the subject. The term “fluid” as used herein refers to oral fluid and any liquid or pseudo-liquid obtained from the oral cavity of the subject. Non-limiting examples include saliva, mucus, and the like. In an embodiment, the fluid is oral fluid.
Determining the amount of a drug in oral fluid of the subject may be accomplished by use of any method known to those skilled in the art. Non-limiting examples for determining the amount of a drug in fluid of a subject include fluorescence polarization immunoassay (“FPIA,” Abbott Diagnostics), mass spectrometry (MS), gas chromatography-mass spectrometry (GC-MS-MS), liquid chromatography-mass spectrometry (LC-MS-MS), and the like. In one embodiment, LC-MS-MS methods known to those skilled in the art are used to determine a raw level, amount or concentration of a drug in oral fluid of the subject. In one embodiment, a raw level or concentration of a drug in oral fluid of a subject is measured and reported as a ratio, percent, or in relationship to the amount of fluid. The amount of fluid may be expressed as a unit volume, for example, in L, mL, μL, pL, ounce, etc. In one embodiment, the raw amount of a drug in oral fluid of a subject may be expressed as an absolute level or value, for example, in g, mg, pg, ng, pg, etc.
(§1) The results (drug concentration of the primary metabolite), demographic information (gender, weight, height, and age), and the prescribed dosage of hydrocodone for fifty randomly selected patients—not included in the patient population used to design the models—were used to assess the validity and robustness of the models.
as §1, with “oxycodone” for “hydrocodone”

Row | SMILES | concentration of the primary metabolite (parent drug) in oral fluid (Example 1: subject, 180 lbs, 65 inches, 30 mg daily dose of hydrocodone) [ng/mL] | concentration of the primary metabolite (parent drug) in the oral fluid (Example 2: subject, 225 lbs, 69 inches, 40 mg daily dose of hydrocodone) [ng/m I] | concentration of the primary metabolite (parent drug) in the oral fluid (Example 3: subject, 254 lbs, 71 inches, 90 mg daily dose of oxycodone) [ng/mL] | concentration of the primary metabolite (parent drug) in the oral fluid (Example 4: subject, 113 lbs, 64 inches, 60 mg daily dose) [ng/mL]
1 | COc1ccc2c3c1O[C@H]1C(=O)CC[C@H]4[C@@H](C2)N(C)CC[C@]314 [Hydrocodone, hydrocodone] | 34 | 101 | – | –
2 | COc1ccc2c3c1O[C@H]1C(=O)CC[C@@]4(O)[C@@H](C2)N(C)CC[C@]314 [Oxycodone, oxycodone] | – | – | 429 | 50
